One test has as its system PDGFR. Kind of test: PDGF-stimulated PDGFR tyrosine phosphorylation in NIH 3T3 cells. The note with it: NIH 3T3 cells; read-out: IC50 PDGFR tyrosine phosphorylation (PDGF). It is filed as cell-based, mouse. How it is done: Inhibition of growth factor-dependent receptor tyrosine phosphorylation by GFBs. Starved Flk-1/KDR-overexpressing NIH 3T3 cells (Flk-1/NIH 3T3) or NIH 3T3 cells were pretreated with GFBs for 5 min before stimulation with VEGF (50 ng/ml) or PDGF-BB (10 ng/ml) for 10 min, respectively. The cells were then harvested and lysed, and proteins from the lysates were separated by SDS-PAGE and transferred to nitrocellulose. Membranes then were either immunoblotted with anti-phospho-VEGFR2 antibody (Cell Signaling Technologies, Beverly, Mass.) for activated Flk-1 or anti-phospho-tyrosine antibody (4G10, Upstate Biotechnology, Lake Placid, N.Y.) for activated PDGFR. Phosphotyrosine Flk-1 and PDGFR were quantified using a Bio-Rad Model GS-700 Imaging Densitometer (Bio-Rad Laboratories, Inc, Hercules, Calif.) (Blaskovich, M. A. et al. Nat Biotechnol, 2000, 18:1065-70).

Test [1] concerns IGF-1-stimulated Erk1, Erk2, Akt and STAT3 phosphorylation. Kind of test: IGF-1-stimulated phosphorylation of Erk1/2, Akt and STAT3 in IGF-1R/NIH 3T3 cells. It is filed as cell-based, mouse. The note with it: GFB204 10 μM. How it is done: FIGS. 3A and 3B show the effect of GFB204 on growth factor stimulated Erk1, Erk2, Akt, and STAT3 phosphorylation. GFB204 inhibits VEGF and PDGF stimulation of Flk-1 tyrosine phosphorylation and Erk1/Erk2 phosphorylation (FIG. 3A). NIH 3T3 cells or Flk-1/NIH 3T3 cells were treated with increasing concentrations of GFB204 for 5 minutes prior to stimulation with PDGFBB (10 ng/ml) or VEGF (50 ng/ml), respectively, for 10 minutes. The cells were then lysed and processed for SDS-PAGE Western blotting with an antibody specific for phosphotyrosine-Flk-1 or anti-phosphotyrosine for PDGFR tyrosine phosphorylation or phospho-Erk1/2. GFB204 effects on growth factor-stimulated Erk1, Erk2, Akt and STAT3 phosphorylation (FIG. 3B). NIH 3T3, Flk-1/NIH 3T3, IGF-1R/NIH 3T3 or EGFR/NIH 3T3 cells were treated with GFB204 (10 μM) prior to stimulation with PDGF (NIH 3T3) VEGF (Flk-1/NIH 3T3), EGF (EGFR/NIH 3T3), bFGF (NIH 3T3) or IGF-1 (IGF-1R/NIH 3T3). The cells were then harvested and processed for SDS-PAGE Western blotting with antibodies specific for phospho-Erk1/2, phospho-Akt and phospho-STAT3.
Growth factor-mediated stimulation of phosphorylation of Erk1/2, Akt and STAT3. […]

For test [2], the system named is Human middle cerebral artery endothelial cells. Kind of test: VEGF-induced capillary network formation on Matrigel. The format is cell-based. The following applies: Endothelial cell, VEGF 20 ng/ml. As to the method:
FIGS. 4A-4C show the effects of GFB204 on angiogenesis in vitro. GFB204 inhibits capillary network formation in a dose-response manner (FIG. 4C). Human middle cerebral artery endothelial cells (5×10^4) were seeded onto Matrigel and the cells were incubated with VEGF in the presence (FIG. 4B) or absence (FIG. 4A) of GFB204 as described under Materials and Methods.
Capillary network formation. 200 μl of Matrigel was placed into each well of a 24-well culture plate at 4° C. and allowed to polymerize by incubation at 37° C. as described previously (Papadimitriou, E. et al. Biochem Biophys Res Commun, 2001, 282:306-13). Human middle cerebral artery endothelial cells (5×10^4) were seeded on the Matrigel in 1 ml of EBM containing VEGF (20 ng/ml). Each sample was photographed using a 10× objective lens, and quantified the total length of tube structures in each photograph using the Image Pro Plus software (Media Cybernetic, Inc., Md.).

Another test concerns A-549 xenografts. Kind of test: Antitumor activity in the nude mouse A-549 tumor xenograft model. The format is in vivo, nude mice. The note with it: for average tumor size: 3 weeks. As to the method: FIG. 6 illustrates that GFB204 inhibits A-549 xenografts growth in nude mice (FIG. 6). A-549 cells were implanted into the flanks of nude mice and when the tumors reached an average size of about 100 mm^3, the mice were randomized and treated either with vehicle (♦) or GFB204 at 1 mg/kg (▪) and 5 mg/kg (●), and tumor sizes measured as described under Materials and Methods. Tumors were processed two hours after the last i.p. injection for CD31 IHC staining as described under Materials and Methods.
Antitumor activity in the nude mouse tumor xenograft model. Nude mice (Charles River, Wilmington, Mass.) were maintained in accordance with the Institutional Animal Care and Use Committee (IACUC) procedures and guidelines. A-549 cells were harvested and resuspended in PBS, then injected s.c. into the right and left flanks (10×10^6 cells per flank) of 8 week old female nude mice as reported previously (Sun, J. et al. Cancer Res, 1999, 59:4919-26). When tumors reached about 100 mm^3, animals were dosed i.p. with 0.2 ml solution once daily. Control animals received a vehicle whereas treated animals were injected with GFB204 (1 or 5 mg/kg/day). The tumor volumes were determined by measuring the length (l) and the width (w) and calculating the volume (V=lw^2/2) as described previously (Sun, J. et al. Cancer Res, 1999, 59:4919-26). Statistical significance between control and treated animals were evaluated using Student's t-test.

Consider `CCCCOc1c2cc(C(=O)Nc3cc(C(=O)O)cc(C(=O)OCc4ccccc4)c3)cc1Cc1cc(C(=O)Nc3cc(C(=O)O)cc(C(=O)OCc4ccccc4)c3)cc(c1OCCCC)Cc1cc(C(=O)Nc3cc(C(=O)O)cc(C(=O)OCc4ccccc4)c3)cc(c1OCCCC)Cc1cc(C(=O)Nc3cc(C(=O)O)cc(C(=O)OCc4ccccc4)c3)cc(c1OCCCC)C2` [GFB204], for which the IC50 with PDGFR was found to be 190 nM; in test [2], 700 nM. Also, the “IGF-1-stimulation of the phosphorylation of Erk1, Erk2, Akt and STAT3” value in test [1] was “had little effect and not”. In addition, the average tumor size is reported as 650±114 mm^3 in the test on A-549 xenografts (1 mg/kg i.p. once daily) and 284±108 mm^3 with A-549 xenografts (5 mg/kg i.p. once daily). The tumor growth inhibition in the test with A-549 xenografts (1 mg/kg, not statistically significant) worked out at 15%; with A-549 xenografts (5 mg/kg, statistically significant (p<0.05)), 73%.

Values taken from US7718700B2, “Growth factor-binding compounds and methods of use” (Yale University, priority 2004, dated 2010).
